# Square brackets hold non-standard residues; d marks the D form. Peptide text beside a SMILES is read from it. * marks the point of attachment. Mcc = 7-methoxycoumarin-3-carboxyl, COc1ccc2cc(C(=O)*)c(=O)oc2c1; Sta = CC(C)C[C@H](N)[C@@H](O)CC(=O)O; Isovaleryl = CC(C)CC(=O)*
# Columns and labels:
# [1] = molecular target: T1, MCF-7/6 cell conditioned media trouase (Homo sapiens, UniProt P52888); experiment: Thiol activation of MCF-7/6 conditioned medium; assay type: biochemical; conditions: 1 mM DTT, 30 minutes pre-incubation
# T1 construct: MCF-7/6 conditioned medium was pre-incubated for 30 minutes at room temperature with dithiothreitol (DTT); endogenous in cells; host or cells: MCF-7/6 conditioned medium
# [2] = molecular target: T2, MCF-7/6 cell homogenate trouase (Homo sapiens, UniProt P52888); experiment: Inhibition of MCF-7/6 cell homogenate trouase activity; assay type: biochemical
# T2 construct: the cells (approximately 300 μL wet) were homogenized by grinding in 1.7 mL 10 mM pH 7.2 HEPES buffer; endogenous in cells; host or cells: MCF-7/6 (breast carcinoma)
# [3] = Acute toxicity of N-capped prodrugs, intravenous bolus in mice; assay type: in vivo; conditions: intravenous bolus of 250 mg/kg (Dox-HCl eq.), three to five mice per group
# HL-60 cells = experiment: 3H-thymidine incorporation proliferation assay; assay type: cell-based; conditions: 24 hours
# Protocol: Promyelocytic leukemia cells, HL-60, were cultured in RPMI media containing 10% heat inactivated fetal calf serum (FCS). On the day of the study, the cells were collected, washed and resuspended at a concentration of 0.5×10^6 cells/ml in RPMI containing 10% FCS. 100 μl/well of cell suspension was added to 96 well plates. […] Finally, 10 μl of a 100 μCi/ml ^3H-thymidine was added per well and the plates were incubated for 24 hours. The plates were harvested using a 96 well Harvester (Packard Instruments) and counted on a Packard Top Count counter. Four parameter logistic curves were fitted to the ^3H-thymidine incorporation as a function of drug molarity using Prism software to determine IC50 values.
# MCF 7/6 cell homogenate = experiment: Extent of cleavage by cell homogenate (Example 14); assay type: biochemical, human; conditions: 12.5 μg/mL, 2 hr, 37° C.
# [4] = molecular target: T3, partially purified trouase preparation (Homo sapiens, UniProt P52888); experiment: Extent of cleavage by partially purified trouase preparation (Example 14); assay type: biochemical; conditions: 12.5 μg/mL, 2 hr, 37° C.
# T3 construct: The fractions containing the highest activity levels were pooled (fractions #43-46); host or cells: HeLa
# [5] = molecular target: T4, recombinant rat TOP (rRTOP) (Rattus norvegicus, UniProt P24155); experiment: Rates of hydrolysis by recombinant rat TOP; assay type: biochemical; conditions: for Rate of hydrolysis TOP: 10 μg/mL substrate, pH 7.2 10 mM HEPES, 100 μM MnCl2, 37° C., Suc-βAla-Leu-Ala-Leu-Dox = 1.0
# T4 construct: made in house; host or cells: E. coli
# HeLa cell trouase (F1) = molecular target: T5, HeLa cell trouase (F1) (Homo sapiens, UniProt P52888); experiment: Rates of hydrolysis by partially purified HeLa cell trouase (F1); assay type: biochemical; conditions: 10 μg/mL substrate, pH 7.2 10 mM HEPES, 100 μM MnCl2, 37° C.; Suc-βAla-Leu-Ala-Leu-Dox = 1.0
# T5 construct: The fractions containing the highest activity levels were pooled (fractions #43-46); host or cells: HeLa
# Porcine Kidney CD10 = experiment: Hydrolysis by purified CD10; assay type: biochemical; conditions: 12.5 μg/mL, 37° C., pH 7.4, 10 hr
# [6] = molecular target: T6, HeLa cell Fraction 1 trouase (Homo sapiens, UniProt P52888); experiment: Inhibition of Suc-βAla-Leu-Ala-Leu-Dox hydrolysis by HeLa cell Fraction 1; assay type: biochemical; conditions: 3 μM
# T6 construct: The fractions containing the highest activity levels were pooled (fractions #43-46); host or cells: HeLa
# T6 sequence (P52888 whole entry): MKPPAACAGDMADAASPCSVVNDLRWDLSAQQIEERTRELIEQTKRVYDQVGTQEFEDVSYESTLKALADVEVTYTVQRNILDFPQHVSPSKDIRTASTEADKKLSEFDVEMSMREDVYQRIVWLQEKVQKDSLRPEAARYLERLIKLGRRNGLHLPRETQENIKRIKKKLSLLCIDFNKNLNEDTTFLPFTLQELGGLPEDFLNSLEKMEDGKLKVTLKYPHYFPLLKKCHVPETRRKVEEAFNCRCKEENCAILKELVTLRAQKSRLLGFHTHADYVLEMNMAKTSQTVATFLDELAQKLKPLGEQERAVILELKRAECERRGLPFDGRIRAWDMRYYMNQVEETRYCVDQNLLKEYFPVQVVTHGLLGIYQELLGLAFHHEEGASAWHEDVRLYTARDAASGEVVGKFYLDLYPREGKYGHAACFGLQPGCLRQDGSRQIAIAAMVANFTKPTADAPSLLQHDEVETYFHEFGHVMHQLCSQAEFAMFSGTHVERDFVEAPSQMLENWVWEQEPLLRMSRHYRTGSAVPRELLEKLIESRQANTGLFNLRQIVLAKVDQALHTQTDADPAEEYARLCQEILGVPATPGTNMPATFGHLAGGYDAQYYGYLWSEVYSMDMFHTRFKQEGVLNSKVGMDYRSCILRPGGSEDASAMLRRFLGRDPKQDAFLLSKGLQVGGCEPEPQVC
# T5 sequence (P52888 whole entry): as above
# T2 sequence (P52888 whole entry): as above
# T4 sequence (P24155 whole entry): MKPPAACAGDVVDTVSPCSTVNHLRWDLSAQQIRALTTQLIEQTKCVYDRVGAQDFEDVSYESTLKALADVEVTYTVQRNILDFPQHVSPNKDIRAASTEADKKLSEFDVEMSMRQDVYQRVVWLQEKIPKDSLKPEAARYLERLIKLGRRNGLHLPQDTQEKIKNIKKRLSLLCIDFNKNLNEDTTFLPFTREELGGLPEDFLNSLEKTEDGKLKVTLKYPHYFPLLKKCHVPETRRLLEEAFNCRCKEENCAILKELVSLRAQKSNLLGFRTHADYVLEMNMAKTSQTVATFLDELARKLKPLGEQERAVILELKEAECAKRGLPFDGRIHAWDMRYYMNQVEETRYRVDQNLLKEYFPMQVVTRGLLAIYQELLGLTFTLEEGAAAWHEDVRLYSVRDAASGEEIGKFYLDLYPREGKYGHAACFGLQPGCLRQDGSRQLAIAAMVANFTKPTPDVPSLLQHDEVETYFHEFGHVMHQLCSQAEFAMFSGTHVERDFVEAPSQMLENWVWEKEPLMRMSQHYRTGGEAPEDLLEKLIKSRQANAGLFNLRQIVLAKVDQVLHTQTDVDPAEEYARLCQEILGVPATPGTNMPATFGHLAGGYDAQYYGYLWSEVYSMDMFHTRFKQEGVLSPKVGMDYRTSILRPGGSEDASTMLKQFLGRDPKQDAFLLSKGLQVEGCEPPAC
# T3 sequence (P52888 whole entry): as the sequence (P52888 whole entry) above
# T1 sequence (P52888 whole entry): as above
compound,measurement,setting,value
"O[C@H](CS)[C@H](O)CS (racemic) [DTT, dithiothreitol]",activation of Suc-βAla-Leu-Ala-Leu-Dox hydrolysis,[1],tenfold activation
"c1cnc2c(c1)ccc1cccnc12 [1,10 phenanthroline]",trouase activity inhibition,"[2]; 2 mM 1,10 phenanthroline",9 fold
CCCNC(=O)[C@H]1O[C@@H]1C(=O)N[C@H](C(=O)N1CCC[C@H]1C(=O)O)[C@@H](C)CC [CA-074],trouase activity inhibition,[2]; 1 μM,not inhibited
CC(C)C[C@H](NC(=O)[C@H]1O[C@@H]1C(=O)O)C(=O)NCCCCN=C(N)N [E-64],trouase activity inhibition,[2]; 20 μM E-64,not inhibited
O=C(O)CN(CCN(CC(=O)O)CC(=O)O)CC(=O)O [EDTA],trouase activity inhibition,[2]; 1 mM EDTA,9 fold
COc1cccc2c1C(=O)c1c(O)c3c(c(O)c1C2=O)C[C@@](O)(C(=O)CO)C[C@@H]3O[C@H]1C[C@H](NC(=O)[C@H](CC(C)C)NC(=O)[C@H](C)NC(=O)[C@H](CC(C)C)NC(=O)CCNC(=O)CCCC(=O)O)[C@H](O)[C@H](C)O1 [Gl-βAla-Leu-Ala-Leu-Dox],survival up to 8 days,[3],all animals survived
COc1cccc2c1C(=O)c1c(O)c3c(c(O)c1C2=O)C[C@@](O)(C(=O)CO)C[C@@H]3O[C@H]1C[C@H](NC(=O)[C@@H](N)CC(C)C)[C@H](O)[C@H](C)O1 [Leucyl-Doxorubicin],IC50,HL-60 cells,0.222 µM
COc1cccc2c1C(=O)c1c(O)c3c(c(O)c1C2=O)CC(O)(C(C)=O)CC3OC1CC(NC(=O)C(CC(C)C)NC(=O)C(C)NC(=O)C(CC(C)C)NC(=O)C(C)NC(=O)CCC(=O)O)C(O)C(C)O1 (stereo not drawn) [Suc-Ala-Leu-Ala-Leu-Dnr],extent (rate) of cleavage versus the P2 β-alanine compound,MCF 7/6 cell homogenate,1.3 fold
same,extent of cleavage versus the P2 β-alanine compound,[4],0.6 fold
CC[C@H](C)[C@H](NC(=O)CCC(=O)O)C(=O)N[C@@H](C)C(=O)N[C@@H](CC(C)C)C(=O)N[C@H]1C[C@H](O[C@H]2C[C@](O)(C(=O)CO)Cc3c(O)c4c(c(O)c32)C(=O)c2c(OC)cccc2C4=O)O[C@@H](C)[C@H]1O [Suc-Ile-Ala-Leu-Dox],Rate of hydrolysis TOP,[5],0
same,Rate of hydrolysis (F1),HeLa cell trouase (F1),0
CCC(C)C(NC(=O)CCC(=O)O)C(=O)N(C)C(C)C(=O)NC(CC(C)C)C(=O)NC1CC(OC2CC(O)(C(=O)CO)Cc3c(O)c4c(c(O)c32)C(=O)c2c(OC)cccc2C4=O)OC(C)C1O (stereo not drawn) [Suc-Ile-NmAla-Leu-Dox],Rate of hydrolysis TOP,[5],0
same,Rate of hydrolysis (F1),HeLa cell trouase (F1),0
COc1cccc2c1C(=O)c1c(O)c3c(c(O)c1C2=O)C[C@@](O)(C(=O)CO)C[C@@H]3O[C@H]1C[C@H](NC(=O)CNC(=O)[C@H](C)NC(=O)[C@H](CC(C)C)NC(=O)CCC(=O)O)[C@H](O)[C@H](C)O1 [Suc-Leu-Ala-Gly-Dox],Rate of hydrolysis TOP,[5],0.43
same,Rate of hydrolysis (F1),HeLa cell trouase (F1),0.4
COc1cccc2c1C(=O)c1c(O)c3c(c(O)c1C2=O)C[C@@](O)(C(=O)CO)C[C@@H]3O[C@H]1C[C@H](NC(=O)[C@H](CC(C)C)NC(=O)[C@H](C)NC(=O)[C@H](CC(C)C)NC(=O)CCC(=O)O)[C@H](O)[C@H](C)O1 [Suc-Leu-Ala-Leu-Dox],Rate of hydrolysis TOP,[5],0.67
same,Rate of hydrolysis (F1),HeLa cell trouase (F1),0.78
COc1cccc2c1C(=O)c1c(O)c3c(c(O)c1C2=O)CC(O)(C(=O)CO)CC3OC1CC(NC(=O)C(CC(C)C)NC(=O)C(C)N(C)C(=O)C(CC(C)C)NC(=O)CCC(=O)O)C(O)C(C)O1 (stereo not drawn) [Suc-Leu-NmAla-Leu-Dox],Rate of hydrolysis TOP,[5],0
same,Rate of hydrolysis (F1),HeLa cell trouase (F1),0
COc1cccc2c1C(=O)c1c(O)c3c(c(O)c1C2=O)C[C@@](O)(C(=O)CO)C[C@@H]3O[C@H]1C[C@H](NC(=O)[C@H](CC(C)C)NC(=O)[C@H](C)NC(=O)[C@H](CCSC)NC(=O)CCC(=O)O)[C@H](O)[C@H](C)O1 [Suc-Met-Ala-Leu-Dox],Rate of hydrolysis TOP,[5],0.99
same,Rate of hydrolysis (F1),HeLa cell trouase (F1),0.49
CC[C@H](C)[C@H](NC(=O)CCNC(=O)CCC(=O)O)C(=O)N[C@@H](C)C(=O)N[C@@H](CC(C)C)C(=O)N[C@H]1C[C@H](O[C@H]2C[C@](O)(C(=O)CO)Cc3c(O)c4c(c(O)c32)C(=O)c2c(OC)cccc2C4=O)O[C@@H](C)[C@H]1O [Suc-βAla-Ile-Ala-Leu-Dox],Rate of hydrolysis TOP,[5],<0.03
same,Rate of hydrolysis (F1),HeLa cell trouase (F1),0.025
COc1cccc2c1C(=O)c1c(O)c3c(c(O)c1C2=O)CC(O)(C(=O)CO)CC3OC1CC(NC(=O)C(C)NC(=O)C(C)NC(=O)C(CC(C)C)NC(=O)CCNC(=O)CCC(=O)O)C(O)C(C)O1 (stereo not drawn) [Suc-βAla-Leu-Ala-Ala-Dox],cleavage by TOP (presumed),[5],well cleaved
COc1cccc2c1C(=O)c1c(O)c3c(c(O)c1C2=O)CC(O)(C(=O)CO)CC3OC1CC(NC(=O)CNC(=O)C(C)NC(=O)C(CC(C)C)NC(=O)CCNC(=O)CCC(=O)O)C(O)C(C)O1 (stereo not drawn) [Suc-βAla-Leu-Ala-Gly-Dox],cleavage by TOP,[5],well cleaved
COc1cccc2c1C(=O)c1c(O)c3c(c(O)c1C2=O)CC(O)(C(=O)CO)CC3OC1CC(NC(=O)C(CC(C)C)NC(=O)C(Cc2ccc(O)cc2)NC(=O)C(CC(C)C)NC(=O)CCNC(=O)CCC(=O)O)C(O)C(C)O1 (stereo not drawn) [Suc-βAla-Leu-Tyr-Leu-Dox],% hydrolysis/10 hr,Porcine Kidney CD10,0%
same,Fraction hydrolyzed relative to standard,Porcine Kidney CD10,0
CO[C@@H]1[C@H](OC(=O)/C=C/C=C/C=C/C=C/C(=O)O)CC[C@]2(CO2)[C@H]1[C@@]1(C)O[C@@H]1CC=C(C)C [fumagillin],carcinoma cell trouase inhibition,[2]; concentration not given,not
CC(=O)N[C@@H](CC(C)C)C(=O)N[C@@H](CC(C)C)C(=O)N[C@H](C=O)CCCNC(=N)N [leupeptin],trouase activity inhibition,[2]; 20 μM leupeptin,not inhibited
CC(C)CC(=O)N[C@H](C(=O)N[C@H](C(=O)N[C@@H](CC(C)C)[C@@H](O)CC(=O)N[C@@H](C)C(=O)N[C@@H](CC(C)C)[C@@H](O)CC(=O)O)C(C)C)C(C)C [pepstatin] (Isovaleryl-VV[Sta]A[Sta]-OH),trouase activity inhibition,[2]; 1.5 μM,not inhibited
"Mcc-Pro-Leu-Gly-Pro-D-Lys(DNP) (Mcc-PLGP-{dK(DNP)}) [quenched fluorescent substrate; Mcc = 7-Methoxycoumarin-3-carboxyl, DNP dinitrophenyl, reference compound]",Rate of hydrolysis TOP,[5],1.1
same,Rate of hydrolysis (F1),HeLa cell trouase (F1),1.5
N-[1-(RS)-carboxypropyl-Ala-Ala-Phe-p-aminobenzoate [Cpp-AAF-pAB],inhibition of Suc-βAla-Leu-Ala-Leu-Dox hydrolysis,[6],completely inhibited
aminoethylbenzenesulfonylfluoride,trouase activity inhibition,[2]; 50 μM,not inhibited
aprotinin,trouase activity inhibition,[2]; 4 μg/mL,not inhibited
